Experiments:
Cercospora beticola = experiment: Radial growth of the mycelium; type: cell-based; settings: 528 h
[1] = system: Botrytis cinerea (BMM strain); experiment: Mycelial development in liquid medium, absorbance at 600 nm (nephelometry); type: cell-based; settings: 1 mM
Leptosphaeria maculans = experiment: Radial growth of the mycelium; type: cell-based; settings: Plenodomus lingam, 432 h, time 18 days
[2] = system: Botrytis cinerea (BMM strain); experiment: Protection of thale cress leaves against gray rot, B. cinerea spore inoculum with or without 4-PBA; type: in vivo; settings: A. thaliana Col-0 leaves, 4-PBA 1 mM in inoculum
Alternaria solani = experiment: Radial growth of the mycelium; type: cell-based; settings: 528 h
[3] = system: Botrytis cinerea (BMM strain); experiment: Protection of tomato foliar disks against gray rot, B. cinerea spore inoculum with or without compound; type: in vivo; settings: for proportion of lesions larger than 4 mm in diameter: tomato Moneymaker foliar disks, 3 days; for median ratio of gDNA of the fungus to that of the plant, times lower than fungus alone / decrease of the average diameter of the lesions: tomato Moneymaker
[4] = system: Phanerochaete chrysosporium; experiment: Radial growth of the mycelium; type: cell-based
[5] = system: Botrytis cinerea (BMM strain); experiment: Protection of grapevine foliar disks against gray rot, B. cinerea spore inoculum with or without 4-PBA; type: in vivo; settings: grapevine cv. Gamay foliar disks; 4-PBA 1 mM; 5·10^4 spores/mL; 3 days
Method: Material and Methods. A commercial variety of grapevine (Vitis […], cultivar Gamay) was grown in a greenhouse for 6 weeks. […] The inoculum was prepared as mentioned above for the experiments carried out with A. thaliana. A volume of 6 μL was deposited on each disk. The infected disks were incubated as for the experiments carried out on foliar disks of tomato. The disease symptoms were photographed and quantified 3 days after infection from the distribution of the lesions as a function of their diameter and by measuring the largest diameter of the lesions. […] The results presented in FIG. 4 correspond to the mean values±standard deviation.

Helmintosporium teres = experiment: Radial growth of the mycelium; type: cell-based
Fusarium verticilloides = experiment: Radial growth of the mycelium; type: cell-based; settings: 288 h
Sclerotinia sclerotorum = experiment: Radial growth of the mycelium; type: cell-based; settings: 168 h
Magnaporthe oryzae = experiment: microbe, parasite or virus in culture; type: cell-based; settings: Pyricularia oryzae, 336 h
[6] = system: Fusarium oxysporum f. sp melonis; experiment: Radial growth of the mycelium; type: cell-based; settings: 288 h
[7] = time 22 days (day control colonized the whole Petri dish)
[8] = time 12 days (day control colonized the whole Petri dish)

SMILES: O=C(O)CCCc1ccccc1 [4-PBA, 4-Phenylbutyric acid]
- inhibition at 2000 µM (Cercospora beticola; 2 mM 4-PBA, time 22 days): 13%
- inhibition at 5000 µM (Cercospora beticola; 5 mM 4-PBA, time 22 days): 67%
- EC50 (Cercospora beticola; [7]): 2810 µM
- repression of mycelial growth measured by nephelometry ([1]; 4 days, Example 3): 94%
- inhibition at 1000 µM ([1]; Botrytis cinerea, 96 h, incubation for 4 days, Example 4, read-out: degree of inhibition): 97%
- inhibition at 1000 µM (Leptosphaeria maculans; 1 mM 4-PBA): 73%
- inhibition at 2000 µM (Leptosphaeria maculans; 2 mM 4-PBA): 99%
- inhibition at 5000 µM (Leptosphaeria maculans; 5 mM 4-PBA): 99%
- leaves that did not display symptoms ([2]; 5·10^4 spores/mL, 4 days after inoculation): 37%
- proportion of lesions whose diameter was greater than 4 mm ([2]; 4 days after inoculation): 23%
- average diameter of the lesions divided by ([2]; 4 days, relative to fungus alone): 2.2 times
- ratio of gDNA of the fungus to that of the plant, median decrease by a factor ([2]; quantitative PCR): 10
- inhibition at 1000 µM (Alternaria solani; 1 mM 4-PBA, time 22 days): 25%
- inhibition at 2000 µM (Alternaria solani; 2 mM 4-PBA, time 22 days): 62%
- inhibition at 5000 µM (Alternaria solani; 5 mM 4-PBA, time 22 days): 100%
- EC50 (Alternaria solani; [7]): 1650 µM
- average diameters of the foliar lesions as a function of concentration ([3]; tomato M82 foliar disks, 0.5 to 2.5 mM): gradual decrease
- efficacy of protection compared with the Moneymaker variety ([3]; tomato M82 foliar disks, 4-PBA 1 mM): equivalent efficacy
- proportion of lesions larger than 4 mm in diameter ([3]; 4-PBA 1 mM, 5·10^4 spores/mL): 15%
- proportion of lesions larger than 4 mm in diameter ([3]; 4-PBA 1 mM, 5·10^5 spores/mL): 23%
- median ratio of gDNA of the fungus to that of the plant, times lower than fungus alone ([3]; 4-PBA 1 mM, 5·1^04 spores/mL): 40 times
- median ratio of gDNA of the fungus to that of the plant, times lower than fungus alone ([3]; 4-PBA 1 mM, 5·10^5 spores/mL): 10 times
- decrease of the average diameter of the lesions ([3]; 4-PBA 1 mM, highest concentration of spores (5·10^5 spores/mL)): 58%
- decrease of the average diameter of the lesions ([3]; 4-PBA 1 mM, lowest concentration of spores (5·10^4 spores/mL)): 68%
- time for the fungus to overcome supplementation of the culture medium ([4]; 4-PBA 1 mM): 14 days
- inhibition at 1000 µM ([4]; Phanerodontia chrysosporium, 96 h, 1 mM 4-PBA, time 4 days): 99%
- inhibition at 2000 µM ([4]; Phanerodontia chrysosporium, 96 h, 2 mM 4-PBA, time 4 days): 100%
- inhibition at 5000 µM ([4]; Phanerodontia chrysosporium, 96 h, 5 mM 4-PBA, time 4 days): 100%
- development at higher concentrations ([4]; final concentrations of 2 and 5 mM): unable to develop
- decrease in the average diameter of the lesions [5]: ~75%
- inhibition at 1000 µM (Helmintosporium teres; 240 h, 1 mM 4-PBA, time 10 days): 94%
- inhibition at 2000 µM (Helmintosporium teres; 240 h, 2 mM 4-PBA, time 10 days): 97%
- inhibition at 5000 µM (Helmintosporium teres; 240 h, 5 mM 4-PBA, time 10 days): 100%
- EC50 (Helmintosporium teres; 240 h, time 10 days (day control colonized the whole Petri dish)): 0.00665 µM
- persistence of the molecule (Helmintosporium teres; lowest concentration tested (1 mM)): ≤ 30 days
- EC50 times lower than that of B. cinerea (Helmintosporium teres; radial growth EC50 compared with B. cinerea): 450 000 times
- inhibition at 1000 µM (Fusarium verticilloides; 1 mM 4-PBA, time 12 days): 66%
- inhibition at 2000 µM (Fusarium verticilloides; 2 mM 4-PBA, time 12 days): 74%
- inhibition at 5000 µM (Fusarium verticilloides; 5 mM 4-PBA, time 12 days): 98%
- EC50 (Fusarium verticilloides; [8]): 500 µM
- inhibition at 1000 µM (Sclerotinia sclerotorum; 1 mM 4-PBA, time 7 days): 0%
- inhibition at 2000 µM (Sclerotinia sclerotorum; 2 mM 4-PBA, time 7 days): 73%
- inhibition at 5000 µM (Sclerotinia sclerotorum; 5 mM 4-PBA, time 7 days): 100%
- EC50 (Sclerotinia sclerotorum; time 7 days (day control colonized the whole Petri dish)): 1900 µM
- EC50 (Magnaporthe oryzae): 1330 µM
- inhibition at 1000 µM (Magnaporthe oryzae): 39%
- inhibition at 2000 µM (Magnaporthe oryzae): 66%
- inhibition at 5000 µM (Magnaporthe oryzae): 100%
- inhibition at 1000 µM ([6]; 1 mM 4-PBA, time 12 days): 68%
- inhibition at 2000 µM ([6]; 2 mM 4-PBA, time 12 days): 80%
- inhibition at 5000 µM ([6]; 5 mM 4-PBA, time 12 days): 99%
- EC50 [6, 8]: 400 µM

Reference: patent US20230172201A1, “Use of 4-Phenylbutyric Acid and/or 3-Phenylbutyric Acid and/or 2-Phenylbutyric Acid in Preventing and Treating Cryptogamic Diseases” (Institut National de Recherche Pour L'Agriculture, …, priority 2020, published 2023)
